Usually inhibition stands for the change of the read-out against control, counted positive when it falls.

The subject of experiment [1] is primary human melanocytes. The experiment is described as follows: cells. How it is done: (i) Cell Cultures: • Neonatal foreskin primary human melanocytes were procured from Life Technologies, USA. Cells were grown in Medium 254 supplemented with human melanocyte growth supplement-2 and maintained at 37° C. in a humidified incubator with 5% CO2 atmosphere. The maintenance and sub culturing of cells were carried out as per the manufacturer's instructions. Cells between passages 3-6 were used for experimentation.
(ii) Active Addition: • Cells were seeded at a density of 5×10^4/well in a 24 well plate in Melanocyte Growth Media (MGM) and incubated for 24 hrs at 37° C./5% CO2. Actives were added to cells along with relevant controls.
(iii) Cell Viability Assay • Briefly, spent media was removed and cells washed once with 0.2 ml of 1×PBS-Ca—Mg solution. Fresh 1 μM calcein-AM in PBS buffer was added to each well. Plates were incubated for 30 min. at 37° C. in a CO2 incubator. Calcein fluorescence was then measured (excitation at 490 nm and emission at 520 nm) in TECAN M1000 plate reader.
(iv) Melanin Content Assay: • After Calcein measurements, cultures were rinsed with PBS (1×) and lysed for 1 hour at 60° C. in a shaker incubator using NaOH/DMSO mix. Melanin content was measured in a Tecan plate reader (405 nm filter), corrected for cell numbers and represented as % inhibition.

Another experiment has as its target T1, Tyrosinase enzyme (Homo sapiens, UniProt P14679).
T1 construct: Primary human melanocytic lysate was used as a source of Tyrosinase enzyme; endogenous in cells; host or cells: primary human melanocytes (lysate)
T1 sequence (P14679 19-529): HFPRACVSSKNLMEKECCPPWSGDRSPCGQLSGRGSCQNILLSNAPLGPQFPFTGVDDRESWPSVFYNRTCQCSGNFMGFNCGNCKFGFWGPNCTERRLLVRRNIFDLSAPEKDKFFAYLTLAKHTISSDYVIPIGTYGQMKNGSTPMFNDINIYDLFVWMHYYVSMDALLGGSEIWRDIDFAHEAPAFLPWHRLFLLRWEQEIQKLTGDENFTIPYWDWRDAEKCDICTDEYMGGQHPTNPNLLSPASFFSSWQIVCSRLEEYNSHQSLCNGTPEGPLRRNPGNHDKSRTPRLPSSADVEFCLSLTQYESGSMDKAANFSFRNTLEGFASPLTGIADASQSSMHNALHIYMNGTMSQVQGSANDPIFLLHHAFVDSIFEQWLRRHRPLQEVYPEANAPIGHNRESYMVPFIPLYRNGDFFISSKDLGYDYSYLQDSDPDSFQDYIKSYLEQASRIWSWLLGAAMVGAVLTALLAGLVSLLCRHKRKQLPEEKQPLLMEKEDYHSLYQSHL
The experiment is described as follows: In vitro human tyrosinase activity assay (melanocytic lysate). The experiment is classed as biochemical. How it is done: (v) In Vitro Human Tyrosinase Activity Assay: • Primary human melanocytic lysate was used as a source of Tyrosinase enzyme. Human melanocytic lysate and test actives (at different concentrations) were incubated together for 15 mins, prior to addition of Tyrosine/DOPA substrate mix. Assay plate was then incubated at 37° C. for ˜14-16 hrs. Optical Density was measured at 405 nm and % Inhibition calculated.

[2] abbreviates: Homo sapiens, Melanocyte, 72 h, read-out: Average % inhibition in cellular melanin.

For the molecule `CNC(=O)[C@H](Cc1c[nH]c2ccccc12)NC(=O)[C@@H](CC(=O)NO)CC(C)C` [Galardin, (R)—N4-Hydroxy-N1-[(S)-2-(1H-indol-3-yl)-1-methylcarbamoyl-ethyl]-2-isobutyl-succinamide], in experiment [1] (setting [2]), the inhibition at 1 µM came to 6% and the inhibition at 10 µM is 17%. For the same molecule, in experiment [1] (galardin by itself at 1 μM), the “reduction of melanin content in primary human melanocytes (in words)” value is given as “no reduction”. In addition, in experiment [1] (galardin by itself at 10 μM), the “reduction of melanin content in primary human melanocytes (in words)” value is reported as “modest reduction”.

As for `NC(=O)c1cccnc1` [Niacinamide, pyridine-3-carboxamide], the inhibition at 1000 µM in experiment [1] (setting [2]) is -7%; against Tyrosinase enzyme (1 mM Niacinamide) it was 4%. The values for the inhibition at 10000 µM (in experiment [1] (setting [2]); at Tyrosinase enzyme (10 mM Niacinamide)) were 16% and -8%, respectively. Besides, the inhibition at 10 µM at Tyrosinase enzyme (0.01 mM Niacinamide) came out at 2%. In addition, the inhibition at 100 µM against Tyrosinase enzyme (0.1 mM Niacinamide) amounted to 2%. At Tyrosinase enzyme (50 mM Niacinamide), the inhibition at 50000 µM was -20%.
